Data on 13 compounds can be found in patent publication US6867211B2, “4-Pyridyl-and 2,4-pyrimidinyl-substituted pyrrole derivatives and their use in pharmacy” (Merckle GmbH, priority 2000, dated 2005).

pIC50: −log10 of the molar value.

The test system of assay [1] is TNFα. Description: In vitro test procedure using human whole blood, LPS-stimulated, TNFα by ELISA. The assay is classed as cell-based. The conditions noted are these: whole-blood method; for pIC50: Homo sapiens. As to the method: (§1) In vitro Test Procedure Using Human Whole Blood
(§2) Human potassium-EDTA whole blood (at 400 μl) is preincubated with test substance for 15 min. at 37° C. in a CO2 incubator (5% CO2; 95% moisture-saturated air). The samples are then stimulated for 4 hours with 1 μg/ml of LPS (E. coli 026:B6) at 37° C. in a CO2 incubator (5% CO2; 95% moisture-saturated air). The reaction is ended by placing the samples on ice, addition of DPBS buffer and subsequent centrifugation (1000×g; 15 min). The plasma supernatant is used for the quantification of IL-1β and TNFα by means of ELISA.

Assay [2] has as its system IL-1β. Description: In vitro test procedure using human whole blood, LPS-stimulated, IL-1β by ELISA. Type of assay: cell-based. The conditions noted are these: whole-blood method; for pIC50: Homo sapiens. As to the method: as §1, §2
In assay [3] the test system is IL-1β. Description: In vitro test procedure using PBMCs, LPS-stimulated, IL-1β by ELISA. The assay is classed as cell-based. The conditions noted are these: Homo sapiens, PBMC; for inhibition at 10 µM: at 10 μmol. As to the method: (§3) In vitro Test Procedure Using PBMCs
(§4) The mononuclear cells (PBMCs) are isolated from human potassium-EDTA whole blood diluted 1:3 by means of density gradient centrifugation (Histopaque®-1.077). After 2 washing steps with DPBS buffer, the mononuclear cells are resuspended in macrophage-SFM medium and adjusted to a cell count of 1×10^6 cells/ml.
(§5) The PBMCs suspension (at 390 μl) is preincubated with test substance for 15 min at 37° C. in a CO2 incubator (5% CO2; 95% moisture-saturated air). The samples are subsequently stimulated for 4 hours with 1 μg/ml LPS (E.coli 026:B6) at 37° C. in a CO2 incubator (5% CO2, 95% moisture-saturated air). The reaction is ended by placing the samples on ice, addition of DPBS buffer and centrifugation (15880×g; 12 min). The supernatant is used for the quantification of IL-1β and TNFα by means of ELISA.

For assay [4], the system named is TNFα. Description: In vitro test procedure using PBMCs, LPS-stimulated, TNFα by ELISA. The assay is classed as cell-based. To be noted: Homo sapiens, PBMC; for inhibition at 10 µM / inhibition at 1 µM: 4 h, read-out: TNFα percentage inhibition; for inhibition at 10 µM: at 10 μmol; for inhibition at 1 µM: at 1 μmol. As to the method: as §3, §4, §5
For the next assay, the target named is T1, 5-lipoxygenase (Homo sapiens, UniProt P09917).
T1 construct: Human granulocytes are used as a source of the 5-lipoxygenase; endogenous in cells; host or cells: human granulocytes isolated from heparinised blood on a Percoll gradient
T1 sequence (P09917 1-674): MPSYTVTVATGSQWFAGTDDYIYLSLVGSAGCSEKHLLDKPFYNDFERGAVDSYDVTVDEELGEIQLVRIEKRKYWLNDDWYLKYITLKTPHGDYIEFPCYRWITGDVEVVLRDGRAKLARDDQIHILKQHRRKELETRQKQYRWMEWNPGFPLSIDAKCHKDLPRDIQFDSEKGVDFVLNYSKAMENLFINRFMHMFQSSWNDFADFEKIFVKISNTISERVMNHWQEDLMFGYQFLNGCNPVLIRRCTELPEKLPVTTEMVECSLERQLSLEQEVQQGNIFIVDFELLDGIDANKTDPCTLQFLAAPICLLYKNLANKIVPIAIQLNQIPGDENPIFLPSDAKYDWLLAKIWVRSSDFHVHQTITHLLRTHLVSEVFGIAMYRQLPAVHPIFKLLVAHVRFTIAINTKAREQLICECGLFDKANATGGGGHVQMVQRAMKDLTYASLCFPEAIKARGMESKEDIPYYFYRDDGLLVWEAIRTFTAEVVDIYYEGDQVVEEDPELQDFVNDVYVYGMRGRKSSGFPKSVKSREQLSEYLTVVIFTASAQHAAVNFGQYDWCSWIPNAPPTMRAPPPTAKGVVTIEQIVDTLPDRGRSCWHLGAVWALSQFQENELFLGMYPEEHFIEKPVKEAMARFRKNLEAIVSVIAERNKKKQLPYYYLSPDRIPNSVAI
Description: In vitro test system for determining the inhibition of 5-lipoxygenase (LTB4 from human granulocytes, A 23187, ELISA). Type of assay: cell-based. The conditions noted are these: for pIC50: human granulocytes, read-out: 5-LO IC50. As to the method: In vitro Test System for Determining the Inhibition of 5-lipoxygenase
Human granulocytes are used as a source of the 5-lipoxygenase. LTB4 (leukotriene B4) is formed from endogenous arachidonic acid by means of stimulation with calcium ionophore A 23187. The granulocytes are isolated and the enzyme reaction is carried out according to known processes (see Arch. Pharm. Pharm. Med. Chem. 330, 307-312 (1997)).
The blood, which is protected from clotting with heparin, is centrifuged on a discontinuous Percoll® gradient and the granulocyte layer is pipetted off. After lysis of the erythrocytes, the granulocytes are washed a number of times and then adjusted to a specific cell count. The enzyme reaction is then started with calcium ionophore A 23187 in the presence or absence of the test substance after addition of Ca2+. The synthesis of the leukotrienes is stopped after 1.5 minutes. The samples are centrifuged off and the supernatant is diluted. LTB4 is determined quantitatively by means of ELISA.

The next assay addresses T2, cyclooxygenase-1 (Homo sapiens, UniProt P23219).
T2 construct: endogenous in cells; host or cells: human platelets isolated on a discontinuous Percoll gradient
The experiment in a line: In vitro test system for determining the inhibition of cyclooxygenase-1 (PGE2 from human platelets, calcium ionophore, ELISA). The assay is classed as cell-based. To be noted: for COX-1 percentage inhibition: at 10 μmol. As to the method: In vitro Test System for Determining the Inhibition of Cyclooxygenase-1
In this test system, the amount of prostaglandin E2 formed from human platelets after addition of calcium ionophore is determined by means of ELISA. In this process, the platelets are obtained after centrifugation on a discontinuous Percoll® gradient. The enzyme reaction and the determination of the metabolites formed is carried out in principle as in the determination of 5-lipoxygenase inhibition. Differences exist with respect to the incubation time. Furthermore, the addition of a thromboxane synthesis inhibitor is necessary (see Arch. Pharm. Pharm. Med. Chem. 330, 307-312 (1997)).

In assay [5] the target is T3, COX2 (from sheep placenta) (Ovis aries, UniProt P79208).
T3 construct: COX2 (from sheep placenta) is preincubated at 4° C. with test substance for 10 min; from tissue; host or cells: sheep placenta
T3 sequence (P79208 17-603): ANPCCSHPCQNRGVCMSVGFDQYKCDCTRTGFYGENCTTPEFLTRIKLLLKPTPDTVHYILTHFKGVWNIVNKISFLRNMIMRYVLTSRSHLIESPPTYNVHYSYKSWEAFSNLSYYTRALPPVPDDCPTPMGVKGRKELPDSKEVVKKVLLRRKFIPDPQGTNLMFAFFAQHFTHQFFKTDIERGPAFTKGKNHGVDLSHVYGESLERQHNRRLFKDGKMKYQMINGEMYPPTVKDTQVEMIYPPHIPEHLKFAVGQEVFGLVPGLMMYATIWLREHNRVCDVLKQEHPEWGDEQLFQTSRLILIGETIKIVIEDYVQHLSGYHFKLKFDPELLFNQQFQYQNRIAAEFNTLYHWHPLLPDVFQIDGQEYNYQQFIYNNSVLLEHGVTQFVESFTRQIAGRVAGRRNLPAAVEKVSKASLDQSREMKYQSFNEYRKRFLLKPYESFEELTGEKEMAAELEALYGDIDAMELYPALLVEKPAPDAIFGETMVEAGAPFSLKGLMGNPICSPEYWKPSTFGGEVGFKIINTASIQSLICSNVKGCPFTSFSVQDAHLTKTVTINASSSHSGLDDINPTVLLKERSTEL
The experiment in a line: In vitro test system for determining the inhibition of cyclooxygenase-2 (COX2 from sheep placenta, PGE2 ELISA). Type of assay: biochemical. The conditions noted are these: read-out: COX-2 IC50. As to the method: In vitro Test System for Determining the Inhibition of Cyclooxygenase-2
COX2 (from sheep placenta) is preincubated at 4° C. with test substance for 10 min, then stimulated with arachidonic acid (5 μM) at 25° C. for 10 min. […] The determination is carried out at 3 dilutions (10^−7, 10^−6, 10^−5 M). The PGE2 concentrations are quantified by means of ELISA (see Mitchell J. A. et al., Proc. Nat. Acad. Sci. 90: 11693-11697 (1993)).

[6] abbreviates: 4 h, read-out: IL-1β percentage inhibition.

T2 sequence (P23219 24-599): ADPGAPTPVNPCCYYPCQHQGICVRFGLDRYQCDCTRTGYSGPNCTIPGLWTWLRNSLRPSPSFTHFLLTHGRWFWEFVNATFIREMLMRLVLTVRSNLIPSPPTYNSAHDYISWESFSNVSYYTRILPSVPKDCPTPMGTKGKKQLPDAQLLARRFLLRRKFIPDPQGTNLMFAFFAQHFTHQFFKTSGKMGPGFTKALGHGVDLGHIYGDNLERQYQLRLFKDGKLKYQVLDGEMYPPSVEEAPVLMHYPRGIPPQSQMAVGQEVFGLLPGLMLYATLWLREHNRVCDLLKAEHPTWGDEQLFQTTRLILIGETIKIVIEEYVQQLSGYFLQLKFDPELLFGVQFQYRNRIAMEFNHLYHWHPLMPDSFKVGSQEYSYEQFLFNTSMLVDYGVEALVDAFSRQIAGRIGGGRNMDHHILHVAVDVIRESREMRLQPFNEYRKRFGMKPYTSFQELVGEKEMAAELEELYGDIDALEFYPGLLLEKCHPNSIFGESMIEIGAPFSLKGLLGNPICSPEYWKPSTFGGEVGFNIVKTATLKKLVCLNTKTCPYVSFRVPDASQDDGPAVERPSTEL

Regarding `Cc1c(-c2ccncc2)c(-c2ccc(F)cc2)n2c1SCC2` [Example 13, 5-(4-Fluorophenyl)-7-methyl-6-pyridin-4-yl-2,3-dihydropyrrolo-[2,1-b]-thiazole], the pIC50 is 4.39 in the assay with TNFα [1], 4.10 in the assay on IL-1β [2], 5.09 in the assay on TNFα [4] and 7.40 at 5-lipoxygenase. In addition, the inhibition at 10 µM in the assay with IL-1β [3] (setting [6]) is 43%. Also, the COX-1 percentage inhibition at cyclooxygenase-1 is recorded as 10/45%.
As for `CCOC(=O)c1c(-c2ccncc2)c(-c2ccc(F)cc2)n2c1CCC2` [Example 1A, Ethyl 3-(4-fluorophenyl)-2-(4-pyridyl)-6,7-dihydro-5H-pyrrolizine-1-carboxylate], the negative-log IC50 (pIC50) in the assay with TNFα [1] and with IL-1β [2] was 4.52 throughout. Besides, the inhibition at 10 µM in the assay with IL-1β [3] (setting [6]) stood at 21%; with TNFα [4], 13%.
Turning to `CCOC(=O)c1c(-c2ccncc2)c(-c2ccc(Cl)s2)n2c1CCC2` [Example 9A, Ethyl 3-(5-chloro-2-thienyl)-2-(4-pyridyl)-6,7-dihydro-5H-pyrrolizine-1-carboxylate], the values for the pIC50 in the assay with TNFα [1], in the assay with IL-1β [2] and at 5-lipoxygenase were 4.42, 4.66 and 5.89, respectively. Also, the inhibition at 10 µM turned out to be 47% with IL-1β [3] (setting [6]) and 38% with TNFα [4]. Also, on cyclooxygenase-1, the COX-1 percentage inhibition is reported as 10/11%.
For the compound `CC1(C)COc2c(-c3ccncc3)c(-c3ccc(F)cc3)cn2C1` [Example 24, 7-(4-Fluorophenyl)-3,3-dimethyl-8-pyridin-4-yl-3,4-dihydro-2H-pyrrolo[2,1-b][1,3]-oxazine], the results for the pIC50 (in assay [5]; at 5-lipoxygenase) were 5.40 and 5.87, respectively. Further, the inhibition at 10 µM with IL-1β [3] (setting [6]) came out at 48%; in the assay on TNFα [4], 42%.
With `Cc1c(-c2ccncc2)c(-c2ccc(F)cc2)n2c1CCCC2` [Example 17, 3-(4-Fluorophenyl)-1-methyl-2-(4-pyridyl)-5,6,7,8-tetrahydroindolizine], the pIC50 in the assay on TNFα [1] was 4.41; with IL-1β [2], 4.48; in the assay with TNFα [4], 5.40; at 5-lipoxygenase, 5.66. Besides, the inhibition at 1 µM in the assay on IL-1β [3] (4 h, at 1 μmol, read-out: IL-1β percentage inhibition) amounted to 0%. Further, the inhibition at 10 µM in the assay with IL-1β [3] (setting [6]) is 67%. Further, on cyclooxygenase-1, the COX-1 percentage inhibition is 10/48%.
For `O=C(O)c1c(-c2ccncc2)c(-c2ccc(F)cc2)n2c1CCC2` [Example 2, 3-(4-Fluorophenyl)-2-(4-pyridyl)-6,7-dihydro-5H-pyrrolizine-1-carboxylic acid], the pIC50 was 4.80 with TNFα [1] and 5.54 in the assay with IL-1β [2]. The results for the inhibition at 10 µM in the assay with IL-1β [3] (setting [6]) and with TNFα [4] were 17% and 37%, respectively.
In the assay with IL-1β [3], `CCOC(=O)c1c(-c2ccncc2)c2n(c1-c1ccc(F)cc1)CCC2` [Example 1B, Ethyl 3-(4-fluorophenyl)-1-(4-pyridyl)-6,7-dihydro-5H-pyrrolizine-2-carboxylate] showed a pIC50 of 5.85. In the assay with TNFα [4], the inhibition at 1 µM was 12%, the inhibition at 10 µM is 60% and the negative-log IC50 (pIC50) was 5.85. The pIC50 on 5-lipoxygenase was 5.70.
In the case of `O=C(O)c1c(-c2ccncc2)c(-c2ccc(F)cc2)n2c1SCC2` [Example 11, 5-(4-Fluorophenyl)-6-(4-pyridyl)-2,3-dihydro-pyrrole-[2,1-b]-thiazole-7-carboxylic acid], the TNFα percentage inhibition in the assay with TNFα [1] (at 100 μmol) amounted to 45%. This compound gave an IL-1β percentage inhibition in the assay on IL-1β [2] (at 100 μmol) of 45%. Moreover, the pIC50 in the assay on IL-1β [3] was 5.64; in the assay on TNFα [4], 5.17. For the same compound, the 5-LO percentage inhibition at 5-lipoxygenase (at 10 μmol) is 10/30%. For the same compound, the COX-1 percentage inhibition at cyclooxygenase-1 is listed as 10/33%.
On to `O=C(O)c1c(-c2ccncc2)c(-c2cccs2)n2c1CCC2` [Example 7, 3-(2-Thienyl)-2-(4-pyridyl)-6,7-dihydro-5H-pyrrolizine-1-carboxylic acid], for which the pIC50 in the assay with TNFα [1] is 4.32; in the assay on IL-1β [2], 4.28. Besides, the COX-1 percentage inhibition at cyclooxygenase-1 is 10/40%.
Consider `OCc1c(-c2ccncc2)c(-c2ccc(F)cc2)n2c1SCC2` [Example 12, [5-(4-Fluorophenyl)-6-(4-pyridyl)-2,3-dihydro-pyrrolo-[2,1-b]-thiazol-7-yl]methanol], for which the negative-log IC50 (pIC50) in the assay on TNFα [1] is 4.35; with IL-1β [2], 4.12; in the assay with IL-1β [3], 5.12. For the same compound, the inhibition at 10 µM in the assay on TNFα [4] is 44%.
With `Fc1ccc(-c2c(-c3ccncc3)cc3n2CCS3)cc1` [Example 14, 5-(4-Fluorophenyl)-6-pyridin-4-yl-2,3-dihydro-pyrrolo-[2,1-b]-thiazole], the pIC50 with IL-1β [3] is 5.07; in the assay with TNFα [4], 5.12; at 5-lipoxygenase it was 5.62; at cyclooxygenase-1 (human platelets, read-out: COX-1 IC50) it was 5.64.
Regarding `Fc1ccc(-c2c(-c3ccncc3)cc3n2CCC3)cc1` [Example 5, 5-(4-Fluorophenyl)-6-(4-pyridyl)-2,3-dihydro-1H-pyrrolizine], in assay [5], the negative-log IC50 (pIC50) is 5.24. Besides, in the assay with TNFα [4], the inhibition at 1 µM is 44%, the inhibition at 10 µM came to 88% and the pIC50 was 5.85. In addition, the pIC50 at 5-lipoxygenase is 7.57.
`Fc1ccc(-c2c(-c3ccccc3)c3n(c2-c2ccncc2)CCC3)cc1` [Example 25] had a negative-log IC50 (pIC50) in the assay with TNFα [4] of 4.06.
